Test results taken from publication PMC5245739, “Nanoscale Electric Characteristics and Oriented Assembly of Halobacterium salinarum Membrane Revealed by Electric Force Microscopy” (Nanomaterials, 2016).
No end group written: not given here.

Key:
[1] = target: T1, purple membrane (PM) (Halobacterium salinarum, UniProt P02945); assay: SPR binding of peptide to PM (KxV5-type SPR, Langmuir adsorption model); details: PM patches as mobile phase
T1 construct: The culture of Halobacterium halobium and PM isolation were carried out following a standard procedure; endogenous in cells; host or cells: Halobacterium halobium culture; purple membrane isolated by the standard procedure (Oesterhelt & Stoeckenius)
T1 sequence (P02945 14-261 limits assumed): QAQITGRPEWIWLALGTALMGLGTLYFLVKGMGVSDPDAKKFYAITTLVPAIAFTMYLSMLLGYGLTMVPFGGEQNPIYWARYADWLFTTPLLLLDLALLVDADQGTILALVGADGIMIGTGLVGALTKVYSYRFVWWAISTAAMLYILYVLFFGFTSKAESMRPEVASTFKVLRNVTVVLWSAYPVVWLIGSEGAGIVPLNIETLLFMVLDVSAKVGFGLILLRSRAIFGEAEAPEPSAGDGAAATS
Description: Binding affinity of peptide with PM was tested by using surface plasmon resonance (SPR), which can provide real-time monitoring of biomolecular interactions [46, 47]. The binding constant between PM and the peptide was calculated based on Langmuir adsorption, in which the following equation is applicable. (4) 1/R=1/(RmaxKACA)+1/Rmax Rmax is the maximum coverage, KA is the equilibrium adsorption constant, and CA is the concentration of adsorbate solution [48].
The culture of Halobacterium halobium and PM isolation were carried out following a standard procedure [49]. Purified PM was suspended in double-distilled water and stored at 4 °C. The buffer used in the experiments consisted of 10 mM Tris HCl with a pH value of 8.0.
The characterization of the peptides-PM binding interaction was accomplished with the surface plasmon resonance technique (KxV5-type SPR, Plexera, Woodinville, WA, USA). […] The peptides were introduced to the surface of the gold chip in advance as stationary phase. SPR chip was modified by thiol molecules containing carboxyl to form self-assembled layer. 5 mL of carboxyl thiols (dithiosole-COOH, 1 μM) and hydroxy-dithiol molecule (dithiosole-OH, 10 μM) mixing ethanol solution was dropped on a SPR chip surface, and then the remaining liquid was removed by suction after 15 min of adsorption. After rinsing with ethanol, the carboxyl-terminated SAM on the chip surface underwent EDC/NHS activation. PM patches were introduced as a mobile phase. Based on the Langmuir adsorption model, the kinetic parameters and the binding constant were calculated using Plexera software.

[2] = target: T1, purple membrane (PM); assay: Directional PM assembly on Peptide-3 modified silicon, AFM and surface potential; details: side attributed from surface potential; PM adsorbed on peptide modified silicon (EDC/NHS)
Description: The peptide was modified on silicon substrates via 1-ethyl-3-(3-(dimethylamino)propyl) carbodiimide (EDC)/N-hydroxysuccinimide(NHS) coupling for an oriented PM assembly. The silicon surface is treated with oxygen plasma first for hydroxyl group generation and then followed by (3-aminopropyl)triethoxysilane (APTES) modification for an amino-terminated surface. Then, introduction of succine anhydride leads to a carboxyl-terminated self-assembled monolayer (SAM) on the silicon surface, followed by EDC/NHS activation to immobilized peptides onto the silicon surface. […] This observation is consistent with the SPR measurements on the binding affinity of peptide with PM. The surface potential analyses of PM patches on silicon substrate are labeled by lines in EFM-potential images and their sectional analyses were done. […]
The topographic and surface potential images were obtained using a Bruker Dimension Icon microscope in a two-pass operation mode slightly different from the EFM measurement mentioned above. […] The deflection amplitude of the probe in lift mode was monitored, which was linearly proportional to the electrical force imposed on the probe. […]

GARGIMIGTGLVGALTDVYSYDF
kon ([1]; peptide immobilised on gold chip (carboxyl-terminated SAM, EDC/NHS), Plexera software, buffer used in the experiments 10 mM Tris HCl pH 8.0, read-out: adsorption rate constant ka): 283 M⁻¹ s⁻¹
koff ([1]; peptide immobilised on gold chip (carboxyl-terminated SAM, EDC/NHS), Plexera software, buffer used in the experiments 10 mM Tris HCl pH 8.0, read-out: dissociation rate constant kd): 0.00238 s⁻¹
Kd ([1]; peptide immobilised on gold chip, buffer used in the experiments 10 mM Tris HCl pH 8.0, unit inferred, read-out: equilibrium dissociation constant KD): 8.43 µM
orientation of PM on peptide-modified silicon [2]: identical orientation of the PM on surface
